According to paper PMC7902834, “A rotary mechanism for allostery in bacterial hybrid malic enzymes” (Nature Communications, 2021):
pIC50, pKi: −log10 of the molar value. One block for each compound: values may come before it.

Tests used:
Assay type in all cases: biochemical
[1] = target: T1, MaeB (hybrid malic enzyme, Bd1833/MaeB) (Bdellovibrio bacteriovorus, UniProt Q6MM14+Q6MM15); experiment: NADPH absorbance assay ([…] nm), single concentration […] ([…] activity left); set-up: gene mdh; full-length MaeB and MaeBME (Met1–Ala434)
Target sequence in this assay (Q6MM14 entry or part of it): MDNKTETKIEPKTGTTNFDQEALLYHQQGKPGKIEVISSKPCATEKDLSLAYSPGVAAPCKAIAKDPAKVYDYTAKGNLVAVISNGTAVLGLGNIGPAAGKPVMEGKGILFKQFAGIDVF
Target sequence in this assay (Q6MM15 entry or part of it): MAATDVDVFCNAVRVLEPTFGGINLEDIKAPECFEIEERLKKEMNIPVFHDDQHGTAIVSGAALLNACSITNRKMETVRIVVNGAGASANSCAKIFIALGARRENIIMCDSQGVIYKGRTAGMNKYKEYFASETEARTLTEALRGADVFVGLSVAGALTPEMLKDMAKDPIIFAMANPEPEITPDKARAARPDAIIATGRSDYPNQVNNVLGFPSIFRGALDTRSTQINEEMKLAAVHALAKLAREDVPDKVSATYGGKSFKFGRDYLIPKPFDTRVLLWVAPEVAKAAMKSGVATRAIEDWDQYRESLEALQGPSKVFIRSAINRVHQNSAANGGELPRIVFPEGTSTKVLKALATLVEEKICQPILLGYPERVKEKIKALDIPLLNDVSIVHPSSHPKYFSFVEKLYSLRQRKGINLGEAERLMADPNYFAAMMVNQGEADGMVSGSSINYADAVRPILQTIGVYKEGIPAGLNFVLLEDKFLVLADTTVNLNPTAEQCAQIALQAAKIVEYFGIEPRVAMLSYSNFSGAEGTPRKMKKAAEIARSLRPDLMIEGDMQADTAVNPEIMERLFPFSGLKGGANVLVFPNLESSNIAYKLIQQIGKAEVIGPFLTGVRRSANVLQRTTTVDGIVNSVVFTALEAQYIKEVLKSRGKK

[2] = target: T2, MaeB (hybrid malic enzyme, Bd1833/MaeB) (Bdellovibrio bacteriovorus, UniProt Q6MM15); experiment: NADPH absorbance assay ([…] nm), dose response; set-up: gene mdh; full-length MaeB (Met1–Lys780), ligand-free MaeBapo
[3] = target: T1, MaeB (hybrid malic enzyme, Bd1833/MaeB); experiment: NADPH absorbance assay ([…] nm), single concentration […]; set-up: gene mdh; full-length MaeB (Met1–Lys780); settings: read-out: % of uninhibited activity at 2 mM
Target sequence in this assay (Q6MM15 entry or part of it): as above
Target sequence in this assay (Q6MM14 entry or part of it): as the sequence (Q6MM14 entry or part of it) above

[4] = target: T1, MaeB (hybrid malic enzyme, Bd1833/MaeB); experiment: steady-state kinetics, NADPH absorbance; set-up: gene mdh; full-length MaeB (Met1–Lys780)
Target sequence in this assay (Q6MM15 entry or part of it): as the sequence (Q6MM15 entry or part of it) above
Target sequence in this assay (Q6MM14 entry or part of it): as the sequence (Q6MM14 entry or part of it) above

[5] = target: T1, MaeB (hybrid malic enzyme, Bd1833/MaeB); experiment: steady-state kinetics of reverse reductive carboxylation; set-up: gene mdh; full-length MaeB (Met1–Lys780)
Target sequence in this assay (Q6MM15 entry or part of it): as the sequence (Q6MM15 entry or part of it) above
Target sequence in this assay (Q6MM14 entry or part of it): as the sequence (Q6MM14 entry or part of it) above

[6] = target: T2, MaeB (hybrid malic enzyme, Bd1833/MaeB); experiment: X-ray crystal structures of PTA domain and full-length; HPLC of co-purified ligand; enzyme inhibition kinetics (IC50 […]); set-up: gene mdh; full-length MaeB (Met1–Lys780) kinetics and crystal structure (6ZNG)

T2 sequence (Q6MM14 entry or part of it): as above
T2 sequence (Q6MM15 entry or part of it): as the sequence (Q6MM15 entry or part of it) above

SMILES: O=C(O)CC(=O)C(=O)O [oxaloacetate]
- NADPH absorbance assay (340 nm), single concentration 2 mM (<10% activity left) [1]: oxaloacetate inhibited both MaeB and MaeBME activities, suggesting this effector interacts directly with the ME domain

SMILES: CC(C)(COP(=O)(O)OP(=O)(O)OC[C@H]1O[C@@H](n2cnc3c(N)ncnc32)[C@H](O)[C@@H]1OP(=O)(O)O)[C@@H](O)C(=O)NCCC(=O)NCCS [CoA]
- pIC50 [2]: 4.69

SMILES: O=C(O)C[C@H](O)C(=O)O [L-malate]
- steady-state kinetics, NADPH absorbance [4]: 10000 M⁻¹ s⁻¹

Other lines, results leading:

- activity at 2000 µM [3]: ~50%
SMILES: CC(=O)OP(=O)(O)O [acetyl phosphate]

- steady-state kinetics of reverse reductive carboxylation [5]: 30 M⁻¹ s⁻¹
SMILES: CC(=O)C(=O)O [pyruvate]

- pKi [6]: 6.15
SMILES: CC(=O)SCCNC(=O)CCNC(=O)[C@H](O)C(C)(C)COP(=O)(O)OP(=O)(O)OC[C@H]1O[C@@H](n2cnc3c(N)ncnc32)[C@H](O)[C@@H]1OP(=O)(O)O [acetyl-CoA]
